Reference: patent EP2468280A1, “Use of prokineticin 1 receptor agonists to promote the differentiation of epicardin+ progenitor cells” (Université de Strasbourg, priority 2010, dated 2012)

Tests used:
[1] = test system: Coronary endothelial cells (H5V cells); assay: In vitro angiogenesis, tube-like formation on Matrigel; format: cell-based; details: serum free medium, 24h
Method: Coronary endothelial cells (H5V cells) were maintained in DMEM supplemented with 10% heat inactivated Fetal Calf Serum (FCS), glutamine (1mM) under 5% CO2 at 37°C.
In order to evaluate the potential angiogenic activity of the non peptide PKR1 agonists, the test of Growth Factor Reduced Matrigel (GFR Matrigel) 24 well plate was performed. Matrigel leads to the differentiation of many cell types and induces the formation and organization of endothelial cells into capillary tubules. Twenty-four-well culture plates were coated with Matrigel and endothelial cells (H5V) were trypsin-harvested and seeded onto the coated plates at 10^5 cells per well in the serum free assay medium with PKR1 agonists, IS1 and prokineticin-2, and incubated at 37°C for 24h. Tube formation as two dimensional branched structures were observed using an inverted phase contrast microscope (Zeiss), and the number of branching points were quantified in per well from each sample. Each experiment was repeated at least three times. Images were captured at a magnification of X10 with a digital microscope camera system (Urayama K et al., 2007).

PKR1 = assay: Measurement of intracellular calcium in CHO-K1-PKR1 cells (Fluo 4-AM, confocal microscope); format: cell-based; details: CHO-K1 cells infected with adenovirus carrying PKR1 cDNA, 48h after infection, 37°C
Method: CHO-K1 (Chinese Hamster Ovary) cells were infected with an adenovirus carrying PKR1 cDNA. Cells were then stimulated, 48h after infection, with or without IS1 agonists, at 37°C.
Calcium imaging was conducted essentially as previously described (Horinouchi et al., 2007) In brief, Intracellular free calcium [Ca^2+]i was measured with the fluorescent Ca^2+ indicator dye Fluo 4-AM, the membrane-permeant acetoxymethyl ester form of Fluo 4 (Invitrogen). Changes in [Ca^2+]i were determined from variations in the fluorescence intensity of Fluo 4-AM. Briefly, trypsinized CHO-K1-PKR1 cells were seeded onto glass bottom culture dishes (MatTek, MA, USA) for 24 h. […] The fluorescence in the cells was excited at a wavelength of 488 nm and a series of images (total exposure time: 300 s) were acquired at 0.5s intervals at emission wavelength 518 nm. Data are presented as the fluorescence intensity of 3 randomly chosen cells within a randomly selected 40× field. To evaluate the effect of IS1 compound on [Ca^2+]i in CHO-K-PKR1, the maximum change in fluorescence intensity upon addition of IS1 was measured and normalized to the baseline fluorescence obtained before IS 1 addition.

GFP-PKR1 = biological target: T1, GFP-PKR1 (Homo sapiens, UniProt Q8TCW9); assay: PKR1 internalization in CHO-K1 cells transfected with GFP-PKR1; format: cell-based; details: CHO-K1 cells expressing GFP-PKR1, 48h after transfection, 37°C, 20 min imaging
T1 construct: expressed in transfected cells; host or cells: CHO-K1 cells, transient transfection with Lipofectamine2000
Method: The capacity of agonist compounds to induce internalization of PKR1 was assessed. Therefore, CHO-K1 cells transfected with a plasmid encoding GFP-PKR1 (Green Fluorescent Protein-PKR1), in the presence of Lipofectamine2000 (Invitrogen), were used. Cells were stimulated, 48h after transfection, with or without agonist compound, at 37°C. GFP is a fluorescent protein fusion (26.9 kDa) which has a major excitation peak at a wavelength of 396 nm and a minor one at 472 nm. Its emission peak is at 504 nm which is in the lower green portion of the visible spectrum. Fluorescence allowed tracking the localization of PKR1 after stimulation by the agonist (membrane or subcellular). Cells were seeded in glass-bottom coated with polyL-lysine and receptor studies were performed in the presence of various PKR1-ligands. Samples were observed under a Leica confocal microscope (SP2 AOBS MP) with objective 63× at 37°C. Images were automatically recorded during 20 min, with increasing time intervals to avoid bleaching effects because of repetitive scanning. Reconstituted videos contained 42 images and lasted 2 second.

cEPPC = assay: Cardiomyocyte differentiation of cEPPC (contractility by time lapse microscopy, troponin immunostaining); format: cell-based, C57BL/B6 mice; details: beta adrenergic stimuli, isoproterenol 25 nM
Method: Hearts were removed from P1 neonate C57BL/B6 mice or PKR1 null mutant mice, cut into pieces (approximately 1 mm^3), rinsed in PBS to remove excess blood and plated onto 0.1 % gelatin petri dish in DMEM containing GlutaMax, 4.5 g /L glucose, penicillin, streptomycin and 15 % fetal calf serum. Cultures were maintained with minimum disturbance to allow explants to adhere. All cells were maintained at 37°C in a humidified air 5% CO2 atmosphere. After 4 days explants were removed and cells were gently washed and fresh medium with DMEM containing GlutaMax, 4.5 g /L glucose, penicillin, streptomycin and 10 % fetal calf serum serum was added. The cells were cultured during 10 days and trypsinized for experimentation.
For cardiomyogenesis, cells were plated at 2x10^4 onto 1% gelatin coated culture chamber in DMEM containing GlutaMax, 4.5 g /L glucose, penicillin, streptomycin and 10 % fetal calf serum. The cells were maintained in culture during six days and medium were change every 2 days. After 6 days, cardiomyocyte differentiation can be induced using culture medium supplemented with 1µM dexamethasone, 50µg/ml ascorbic acid, 10mM glycerophosphate without or with 10 nM of prokineticin-2. The medium was change every 2 days during 36 days. […]
Cells were fixed in 3,7% formaldehyde at 4°C 1 hours. […] The immunofluorescence was detected by Leica TCSNT fluorescent microscope.

T1 sequence (Q8TCW9 whole entry): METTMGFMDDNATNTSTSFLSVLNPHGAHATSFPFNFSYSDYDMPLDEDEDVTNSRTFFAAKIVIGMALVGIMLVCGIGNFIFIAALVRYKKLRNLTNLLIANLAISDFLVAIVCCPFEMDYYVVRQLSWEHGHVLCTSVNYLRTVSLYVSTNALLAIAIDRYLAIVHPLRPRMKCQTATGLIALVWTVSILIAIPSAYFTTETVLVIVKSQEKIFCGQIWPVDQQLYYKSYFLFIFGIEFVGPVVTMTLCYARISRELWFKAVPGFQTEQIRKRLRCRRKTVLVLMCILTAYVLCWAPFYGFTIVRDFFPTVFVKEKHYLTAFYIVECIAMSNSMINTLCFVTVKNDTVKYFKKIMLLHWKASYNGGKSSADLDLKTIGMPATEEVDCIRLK

Row | SMILES | in vitro angiogenesis (tube-like formation of the endothelial cells on Matrigel) [1] | activation of PKR1 signalling pathway (intracellular calcium release) (PKR1) | PKR1 internalization (GFP-PKR1) | beating frequence of cardiomyocytes induced from cEPPC (cEPPC)
1 | O=C(NCc1cccnc1)/C(=C\c1ccco1)NC(=O)c1ccccc1 [IS1] | Induction of in vitro angiogenesis | able to activate the PKR1 signalling pathway | specifically interacts with PKR1 and induces its internalization | 
2 | CC(C)NCC(O)c1ccc(O)c(O)c1 (stereo not shown) [isoproterenol, Isoproterenol] |  |  |  | beating frequence is increased
